Patent US20230219962A1, “PYRAZOLO[4,3-d]PYRIMIDINE DERIVATIVES AND METHODS OF USE THEREOF FOR THE TREATMENT OF CELLULAR PROLIFERATIVE DISORDERS” (Merck Sharp & Dohme LLC, priority 2020, published 2023)

Legend:
hTLR7 = target: T1, hTLR7 (Homo sapiens, UniProt Q9NYK1); experiment: Human TLR7 Reporter Assay; type: cell-based; details: HEK-Blue hTLR7 cells, 16 hours, normalized to CL097 (6 μM) and DMSO
T1 construct: host or cells: HEK-Blue hTLR7 cells (HEK293-derived, own knowledge)
T1 sequence (Q9NYK1 27-1049): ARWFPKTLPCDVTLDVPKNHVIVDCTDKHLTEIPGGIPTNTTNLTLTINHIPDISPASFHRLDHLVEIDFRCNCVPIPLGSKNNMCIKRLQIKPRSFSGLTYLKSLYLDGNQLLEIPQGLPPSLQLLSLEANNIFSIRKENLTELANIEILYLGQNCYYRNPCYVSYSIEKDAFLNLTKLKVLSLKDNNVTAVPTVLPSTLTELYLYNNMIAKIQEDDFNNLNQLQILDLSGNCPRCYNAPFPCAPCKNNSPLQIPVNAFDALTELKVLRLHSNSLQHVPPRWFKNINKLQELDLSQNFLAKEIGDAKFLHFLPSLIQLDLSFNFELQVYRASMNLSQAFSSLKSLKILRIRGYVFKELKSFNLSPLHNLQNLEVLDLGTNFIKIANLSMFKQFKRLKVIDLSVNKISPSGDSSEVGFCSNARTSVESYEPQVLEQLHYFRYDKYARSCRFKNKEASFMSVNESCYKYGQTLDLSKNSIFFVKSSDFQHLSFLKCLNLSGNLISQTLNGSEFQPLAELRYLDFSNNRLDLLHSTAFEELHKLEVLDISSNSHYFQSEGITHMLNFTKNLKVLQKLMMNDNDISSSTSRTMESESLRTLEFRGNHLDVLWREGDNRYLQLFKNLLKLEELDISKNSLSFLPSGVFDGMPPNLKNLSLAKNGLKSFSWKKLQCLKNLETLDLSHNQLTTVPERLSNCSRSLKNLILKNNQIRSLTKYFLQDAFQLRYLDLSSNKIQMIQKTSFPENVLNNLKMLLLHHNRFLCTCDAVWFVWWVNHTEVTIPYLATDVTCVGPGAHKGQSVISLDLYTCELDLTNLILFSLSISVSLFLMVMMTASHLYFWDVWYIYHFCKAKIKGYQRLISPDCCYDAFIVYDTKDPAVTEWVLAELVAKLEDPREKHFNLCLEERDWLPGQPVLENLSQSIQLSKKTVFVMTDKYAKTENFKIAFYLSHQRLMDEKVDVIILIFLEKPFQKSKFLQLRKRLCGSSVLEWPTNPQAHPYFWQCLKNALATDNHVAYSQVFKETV
In short: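 HEK-Blue hTLR7 reporter cells (20,000/well) incubated 16 h at 37 °C with 10-point 3-fold compound dilutions; SEAP read by absorbance at 620 nm. Effects normalized between CL097 (6 μM) and DMSO controls; EC50 from 4-parameter fit.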

hTLR8 = target: T2, hTLR8 (Homo sapiens, UniProt Q9NR97); experiment: Human TLR8 Reporter Assay; type: cell-based; details: HEK-Blue hTLR8 cells, 16 hours, normalized to tl8-506 (1 μM) and DMSO
T2 construct: host or cells: HEK-Blue hTLR8 cells (HEK293-derived, own knowledge)
T2 sequence (Q9NR97 27-1041): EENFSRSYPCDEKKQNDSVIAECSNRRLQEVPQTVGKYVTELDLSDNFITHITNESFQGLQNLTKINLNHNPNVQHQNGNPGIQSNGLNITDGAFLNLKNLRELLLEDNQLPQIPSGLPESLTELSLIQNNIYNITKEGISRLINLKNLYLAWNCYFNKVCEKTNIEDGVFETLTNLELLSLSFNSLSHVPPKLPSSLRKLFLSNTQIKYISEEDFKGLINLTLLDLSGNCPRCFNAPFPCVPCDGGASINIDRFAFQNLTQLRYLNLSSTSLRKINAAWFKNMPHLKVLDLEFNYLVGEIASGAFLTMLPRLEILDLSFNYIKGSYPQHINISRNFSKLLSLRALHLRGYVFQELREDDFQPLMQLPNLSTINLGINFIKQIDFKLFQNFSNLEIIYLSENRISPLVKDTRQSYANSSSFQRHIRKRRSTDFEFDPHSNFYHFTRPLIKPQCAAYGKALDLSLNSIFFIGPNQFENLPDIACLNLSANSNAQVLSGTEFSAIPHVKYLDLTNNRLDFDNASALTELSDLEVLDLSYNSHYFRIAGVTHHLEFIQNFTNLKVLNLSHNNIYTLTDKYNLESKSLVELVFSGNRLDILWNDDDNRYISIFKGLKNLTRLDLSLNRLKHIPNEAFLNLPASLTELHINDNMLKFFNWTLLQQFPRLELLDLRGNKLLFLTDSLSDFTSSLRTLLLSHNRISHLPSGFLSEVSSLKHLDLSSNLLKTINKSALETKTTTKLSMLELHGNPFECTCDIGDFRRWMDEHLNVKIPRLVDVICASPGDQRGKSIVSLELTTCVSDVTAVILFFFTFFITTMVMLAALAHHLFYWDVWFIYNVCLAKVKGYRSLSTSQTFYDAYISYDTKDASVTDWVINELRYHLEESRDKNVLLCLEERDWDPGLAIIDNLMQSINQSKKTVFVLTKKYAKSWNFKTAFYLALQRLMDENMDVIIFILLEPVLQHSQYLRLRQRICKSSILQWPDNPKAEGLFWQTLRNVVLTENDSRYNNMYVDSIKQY
In short: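 HEK-Blue hTLR8 cells (20,000/well) incubated 16 h at 37 °C with 10-point 3-fold compound dilutions in HEK-Blue Detection medium; reporter read as absorbance at 620 nm. Effects normalized between DMSO and tl8-506 (1 μM); EC50 from 4-parameter fit.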

Row | EC50 (hTLR7) | EC50 (hTLR8) | SMILES
1 | 2210 nM | 15100 nM | CCCCNc1nc(N)nc2cn(Cc3c(OC)ccc(CN4CCN(C(=O)C5CCC(CN6C(=O)CC(SC[C@H](N)C(=O)O)C6=O)CC5)CC4)c3OC)nc12 (stereo partly drawn) [Compound 90]
2 | 265 nM | 2370 nM | CCCCNc1nc(N)nc2cn(Cc3ccccn3)nc12 [Compound 97]
3 | 380 nM | 2640 nM | CCCCNc1nc(N)nc2cn(Cc3c(OC)cccc3OCCCC(=O)OC)nc12 [Compound 206]
4 | 490 nM | 1530 nM | CCCCNc1nc(N)nc2cn(Cc3c(OC)ccc(N)c3OC)nc12 [Compound 77]
5 | 382 nM | 103 nM | C=CCN(C)Cc1cnc(Cn2cc3nc(N)nc(N[C@H](CO)CCC)c3n2)c(OC)c1 [Compound 185]
6 | 414 nM | > 9980 nM | CCCCNc1nc(N)nc2cn(Cc3c(OC)cc(N4C(=O)C=CC4=O)cc3OC)nc12 [Compound 98]
7 | 717 nM | 942 nM | CCCCNc1nc(N)nc2cn(Cc3ccc(CCN)cc3OC)nc12 [Compound 139]
8 | 1790 nM | 6400 nM | CCCCNc1nc(N)nc2cn(Cc3ccc(CN4CCN(C(=O)CN5C(=O)C=CC5=O)CC4)cc3OC)nc12 [Compound 105]
9 | 5440 nM | 12400 nM | CCCCNc1nc(N)nc2cn(Cc3[nH]cnc3C)nc12 [Compound 188]
10 | 518 nM | 348 nM | CCCCNc1nc(N)nc2cn(Cc3c(OC)cc(N4CCNCC4)cc3OC)nc12 [Compound 64]
11 | 597 nM | > 29900 nM | CCCCNc1nc(N)nc2cn(Cc3c(OC)cc(CNC(=O)C4CCC(CN5C(=O)C=CC5=O)CC4)cc3OC)nc12 (stereo not drawn) [Compound 72]
12 | 91.9 nM | 99.8 nM | CCCCNc1nc(N)nc2cn(Cc3c(OC)cc(CNC)cc3OC)nc12 [Compound 109]
13 | 516 nM | 2520 nM | CCCCNc1nc(N)nc2cn(Cc3cc(C)no3)nc12 [Compound 171]
14 | 5090 nM | 3490 nM | CCC[C@@H](CO)Nc1nc(N)nc2cn(Cc3c(OC)cc(C(CN)N(C)CCC)cc3OC)nc12 (stereo partly drawn) [Compound 221]
15 | 214 nM | 1010 nM | CCCCCNc1nc(N)nc2cn(Cc3c(OC)cccc3OC)nc12 [Compound 28]
16 | 858 nM | 3930 nM | CCNc1nc(N)nc2cn(Cc3c(OC)cccc3OC)nc12 [Compound 44]

More lines, now with the values behind:

Row | SMILES | EC50 (hTLR7) | EC50 (hTLR8)
17 | CCCCC(CCO)Nc1nc(N)nc2cn(Cc3ccccc3OC)nc12 (stereo not drawn) [Compound 17] | 398 nM | > 29900 nM
18 | CCCCNc1nc(N)nc2cn(Cc3ccc(C(C)N(C)CCC)cc3OC)nc12 (stereo not drawn) [Compound 233] | 32.3 nM | 456 nM
19 | CCCCNc1nc(N)nc2cn(Cc3c(OC)ccc(CN4C(=O)C=CC4=O)c3OC)nc12 [Compound 95] | 3350 nM | 4330 nM
20 | CCC[C@@H](CO)Nc1nc(N)nc2cn(Cc3c(OC)cc(CNC)cc3OC)nc12 [Compound 154] | 1080 nM | 4150 nM
21 | CCCCC(CCC)Nc1nc(N)nc2cn(Cc3ccccc3OC)nc12 (stereo not drawn) [Compound 19] | 435 nM | > 29900 nM
22 | CCCCNc1nc(N)nc2cn(Cc3ccc(C4CCC(=O)N4)cc3)nc12 (stereo not drawn) [Compound 201] | 539 nM | 3260 nM
23 | CCCCNc1nc(N)nc2cn(Cc3ccc(C(N)CN)cc3OC)nc12 (stereo not drawn) [Compound 227] | 10700 nM | 10800 nM
24 | CCCCNc1nc(N)nc2cn(CC3CCCCC3)nc12 [Compound 7] | 2520 nM | > 29900 nM
25 | CCCCNc1nc(N)nc2cn(Cc3nc(CNC)oc3C)nc12 [Compound 165] | 1360 nM | 4680 nM
26 | CCCCNc1nc(N)nc2cn(Cc3ccc(C(C)N(C)C)cc3OC)nc12 (stereo not drawn) [Compound 219] | 122 nM | 275 nM
27 | CCC[C@@H](CO)Nc1nc(N)nc2cn(Cc3ccc(CN4CC(CN)C4)cc3OC)nc12 [Compound 149] | 5180 nM | 1180 nM
28 | CCC[C@@H](CO)Nc1nc(N)nc2cn(Cc3ccc(CNC)cc3OC)nc12 [Compound 155] | 2460 nM | 6530 nM
29 | CCCCNc1nc(N)nc2cn(Cc3c(OC)cc(CN)cc3OC)nc12 [Compound 66] | 493 nM | 199 nM
30 | COc1cccc(OC)c1Cn1cc2nc(N)nc(NCC(C)O)c2n1 (stereo not drawn) [Compound 48] | 7720 nM | > 29900 nM
31 | CCCCNc1nc(N)nc2cn(Cc3c(OC)ccc(CCN)c3OC)nc12 [Compound 79] | 4450 nM | 1810 nM
32 | CCCCNc1nc(N)nc2cn(Cc3c(OC)cc(CCN)cc3OC)nc12 [Compound 67] | 281 nM | 392 nM
33 | CCCCNc1nc(N)nc2cn(Cc3c(OC)cc(CN4C(=O)C=CC4=O)cc3OC)nc12 [Compound 103] | 97.9 nM | 422 nM
34 | CCC[C@@H](C)Nc1nc(N)nc2cn(Cc3c(OC)cc(CNC)cc3OC)nc12 [Compound 189] | 90 nM | 290 nM
35 | CCCCNc1nc(N)nc2cn(Cc3c(OC)cc(C(C)NC)cc3OC)nc12 (stereo not drawn) [Compound 211] | 365 nM | 198 nM
36 | CCCCC(CCC)Nc1nc(N)nc2cn(Cc3ccccc3OC)nc12 (stereo not drawn) [Compound 18] | 315 nM | > 29900 nM
37 | CCC[C@@H](CO)Nc1nc(N)nc2cn(Cc3ccccc3OC)nc12 [Compound 130] | 370 nM | 734 nM
38 | CCCCNc1nc(N)nc2cn(Cc3ccc(N4CCN(C(=O)C5CCC(CN6C(=O)C=CC6=O)CC5)CC4)cc3OC)nc12 (stereo not drawn) [Compound 68] | 190 nM | 3640 nM
39 | CCCCNc1nc(N)nc2cn(Cc3cccc(N4CCNCC4)c3OC)nc12 [Compound 132] | 708 nM | 1490 nM
40 | CCC[C@H](C)Nc1nc(N)nc2cn(Cc3c(OC)cc(Br)cc3OC)nc12 [Compound 184] | 103 nM | 728 nM
41 | CCCCNc1nc(N)nc2cn(Cc3cc(CN4CCN(C(=O)C5CCC(CN6C(=O)C=CC6=O)CC5)CC4)ccc3OC)nc12 (stereo not drawn) [Compound 71] | 267 nM | 3040 nM
42 | CCCCNc1nc(N)nc2cn(Cc3cc(N4CCN(C(=O)C5CCC(CN6C(=O)C=CC6=O)CC5)CC4)ccc3OC)nc12 (stereo not drawn) [Compound 70] | > 1110 nM | 908 nM
43 | CCCCNc1nc(N)nc2cn(Cc3ccc(CN4CCNCC4)cc3OC)nc12 [Compound 131] | 680 nM | 1250 nM
44 | CCCCNc1nc(N)nc2cn(Cc3ccc(C4CCCN4)cc3)nc12 (stereo not drawn) [Compound 205] | 409 nM | 519 nM
45 | CCCCNc1nc(N)nc2cn(Cc3ccccc3OC)nc12 [Compound 1] | 665 nM | 4900 nM
